Assay results from PMC11240878, “Synthesis, enzyme inhibition assay, and molecular modeling study of novel pyrazolines linked to 4-methylsulfonylphenyl scaffold: antitumor activity and cell cycle analysis” (RSC Advances, 2024).

Columns and labels:
59 cancer cell lines = test: NCI 59 cancer cell line panel, single dose; type: cell-based, human; conditions: for PCE (positive cytotoxic effect: ratio of cell lines with growth inhibition >10% to total cell lines) / MG% (mean growth percent): 10 μM single dose; for MG% (mean growth percent): 59 cell lines
HL-60(TB) = test: NCI single-dose GI%, leukemia; type: cell-based, human; conditions: 10.0 μM in one dose
K-562 = test: NCI single-dose GI%, leukemia; type: cell-based, human; conditions: K-562, leukemia; 10.0 μM in one dose
MOLT-4 = test: NCI single-dose GI%, leukemia; type: cell-based, human; conditions: MOLT-4, leukemia; 10.0 μM in one dose
A549/ATCC = test: NCI single-dose GI%, NSC lung; type: cell-based, human; conditions: 10.0 μM in one dose
EKVX = test: NCI single-dose GI%, NSC lung; type: cell-based, human; conditions: 10.0 μM in one dose
HOP-62 = test: NCI single-dose GI%, NSC lung; type: cell-based, human; conditions: HOP-62, NSC lung; 10.0 μM in one dose
NCI-H322M = test: NCI single-dose GI%, NSC lung; type: cell-based, human; conditions: 10.0 μM in one dose
NCI-H522 = test: NCI single-dose GI%, NSC lung; type: cell-based, human; conditions: 10.0 μM in one dose
HT29 = test: NCI single-dose GI%, colon; type: cell-based, human; conditions: 10.0 μM in one dose
U251 = test: NCI single-dose GI%, CNS; type: cell-based, human; conditions: 10.0 μM in one dose
UACC-257 = test: NCI single-dose GI%, melanoma; type: cell-based, human; conditions: UACC-257, melanoma; 10.0 μM in one dose
OVCAR-8 = test: NCI single-dose GI%, ovarian; type: cell-based, human; conditions: OVCAR-8, ovarian; 10.0 μM in one dose
SK-OV-3 = test: NCI single-dose GI%, ovarian; type: cell-based, human; conditions: SK-OV-3, ovarian; 10.0 μM in one dose
CAKI-1 = test: NCI single-dose GI%, renal; type: cell-based, human; conditions: CAKI-1, renal; 10.0 μM in one dose
TK-10 = test: NCI single-dose GI%, renal; type: cell-based, human; conditions: TK-10, renal; 10.0 μM in one dose
UO-31 = test: NCI single-dose GI%, renal; type: cell-based, human; conditions: UO-31, renal; 10.0 μM in one dose
BT-549 = test: NCI single-dose GI%, breast; type: cell-based, human; conditions: BT-549, breast; 10.0 μM in one dose
T-47D = test: NCI single-dose GI%, breast; type: cell-based, human; conditions: 10.0 μM in one dose
RPMI-8226 = test: NCI single-dose GI%, leukemia; type: cell-based, human; conditions: RPMI-8226, leukemia; 10.0 μM in one dose
SR = test: NCI single-dose GI%, leukemia; type: cell-based, human; conditions: 10.0 μM in one dose
NCI-H226 = test: NCI single-dose GI%, NSC lung; type: cell-based, human; conditions: 10.0 μM in one dose
NCI-H23 = test: NCI single-dose GI%, NSC lung; type: cell-based, human; conditions: 10.0 μM in one dose
HCT-116 = test: NCI single-dose GI%, colon; type: cell-based, human; conditions: HCT-116, colon; 10.0 μM in one dose
HCT-15 = test: NCI single-dose GI%, colon; type: cell-based, human; conditions: HCT-15, colon; 10.0 μM in one dose
SF-295 = test: NCI single-dose GI%, CNS; type: cell-based, human; conditions: SF-295, CNS; 10.0 μM in one dose
SF-539 = test: NCI single-dose GI%, CNS; type: cell-based, human; conditions: SF-539, CNS; 10.0 μM in one dose
LOX IMVI = test: NCI single-dose GI%, melanoma; type: cell-based, human; conditions: 10.0 μM in one dose
A498 = test: NCI single-dose GI%, renal; type: cell-based, human; conditions: 10.0 μM in one dose
PC-3 = test: NCI single-dose GI%, prostate; type: cell-based, human; conditions: PC-3, prostate; 10.0 μM in one dose
DU-145 = test: NCI single-dose GI%, prostate; type: cell-based, human; conditions: DU-145, prostate; 10.0 μM in one dose
MDA-MB-231/ATCC = test: NCI single-dose GI%, breast; type: cell-based, human; conditions: 10.0 μM in one dose
MDA-MB-468 = test: NCI single-dose GI%, breast; type: cell-based, human; conditions: MDA-MB-468, breast; 10.0 μM in one dose
KM12 = test: NCI single-dose GI%, colon; type: cell-based, human; conditions: 10.0 μM in one dose
SNB-75 = test: NCI single-dose GI%, CNS; type: cell-based, human; conditions: SNB-75, CNS; 10.0 μM in one dose
SK-MEL-2 = test: NCI single-dose GI%, melanoma; type: cell-based, human; conditions: SK-MEL-2, melanoma; 10.0 μM in one dose
SK-MEL-5 = test: NCI single-dose GI%, melanoma; type: cell-based, human; conditions: SK-MEL-5, melanoma; 10.0 μM in one dose
OVCAR-4 = test: NCI single-dose GI%, ovarian; type: cell-based, human; conditions: OVCAR-4, ovarian; 10.0 μM in one dose
MCF7 = test: NCI single-dose GI%, breast; type: cell-based, human; conditions: 10.0 μM in one dose

Row | Compound | PCE (positive cytotoxic effect: ratio of cell lines with growth inhibition >10% to total cell lines) (59 cancer cell lines) | MG% (mean growth percent) (59 cancer cell lines) [%] | GI% (HL-60(TB)) [%] | GI% (K-562) [%] | GI% (MOLT-4) [%] | GI% (EKVX) [%] | GI% (HOP-62) [%] | GI% (NCI-H522) [%] | GI% (HT29) [%] | GI% (U251) [%] | GI% (CAKI-1) [%] | GI% (UO-31) [%] | GI% (T-47D) [%] | melting point [°C] | GI% (NCI-H226) [%] | GI% (HCT-116) [%] | GI% (PC-3) [%] | GI% (MDA-MB-231/ATCC) [%] | GI% (MDA-MB-468) [%] | other results
1 | CS(=O)(=O)c1ccc(C(=O)N2N=C(c3ccc(F)cc3)CC2c2ccccc2)cc1 (stereo not drawn) [Compound 18d, (3-(4-Fluorophenyl)-5-phenyl-4,5-dihydro-1H-pyrazol-1-yl)(4-(methylsulfonyl)phenyl)methanone] | 18/59 | 93.02 | 57 | 32 | 37 | 16 | 29 | 43 | 14 | 17 | 14 | 27 | 17 | 311 to 313 | – | – | – | – | – | GI% (A549/ATCC): 24%; GI% (NCI-H322M): 14%; GI% (UACC-257): 37%; GI% (OVCAR-8): 15%; GI% (SK-OV-3): 13%; GI% (TK-10): 12%; GI% (BT-549): 15%
2 | Cc1ccc(NC(=O)c2ccc(CN3CCN(C)CC3)cc2)cc1Nc1nccc(-c2cccnc2)n1 [Imatinib, reference compound] | – | 92.62 | – | – | 18 | 15.7 | – | – | 47.1 | 10.6 | – | – | 18.6 | – | 10.6 | 18.6 | 10.6 | 11.2 | 29.1 | MG% (mean growth percent) (59 cancer cell lines; listed as imatinib): 92.62%; GI% range, CNS cancer (59 cancer cell lines; CNS cancer subpanel, 10 μM): 11–25%; GI% range, NSCLC (59 cancer cell lines; NSCLC subpanel, 10 μM): 11–17%; GI% range against most of the cancer cell lines tested (59 cancer cell lines; all subpanels, 10 μM): < 10–47%; GI% range, breast cancer (59 cancer cell lines; breast cancer subpanel, 10 μM): 11–29%; GI% range, colon cancer (59 cancer cell lines; colon cancer subpanel, 10 μM): 12–47%; GI% range, leukemia (59 cancer cell lines; leukemia subpanel, 10 μM): 13–18%; GI% range, melanoma (59 cancer cell lines; melanoma subpanel, 10 μM): 12–22%; GI% range, ovarian cancer (59 cancer cell lines; ovarian cancer subpanel, 10 μM): < 10%; GI% range, prostate cancer (59 cancer cell lines; prostate cancer subpanel, 10 μM): 11–14%; GI% range, renal cancer (59 cancer cell lines; renal cancer subpanel, 10 μM): < 10–14%; GI% (RPMI-8226): 12.6%; GI% (SR): 14.6%; GI% (NCI-H23): 17.1%; GI% (HCT-15): 11.5%; GI% (SF-295): 15.1%; GI% (SF-539): 24.5%; GI% (LOX IMVI): 11.6%; GI% (A498): 13.7%; GI% (DU-145): 14.4%
3 | COc1ccc(C2=NN(C(=O)c3ccc(S(C)(=O)=O)cc3)C(c3ccccc3)C2)c(OC)c1 (stereo not drawn) [Compound 18n, (3-(2,4-Dimethoxyphenyl)-5-phenyl-4,5-dihydro-1H-pyrazol-1-yl)(4-(methylsulfonyl)phenyl)methanone] | 20/59 | 93.24 | 55 | 26 | 38 | 28 | 20 | 20 | – | – | 15 | 24 | 14 | 216 to 218 | 14 | 18 | 15 | 12 | 36 | GI% (KM12): 12%; GI% (SNB-75): 15%; GI% (SK-MEL-2): 18%; GI% (SK-MEL-5): 21%; GI% (OVCAR-4): 12%; GI% (MCF7): 65%
